A melting point compilation (Tetko et al.; mined from patent text by program, amines drawn as free bases though some values may be those of a salt)

melting point [°C] | SMILES
183 to 185 | COc1cc2c(cc1OC)CCC(N(Cc1ccccc1)C(=O)c1ccc(C)cc1)=C2
79 to 81 | CCCCCCCCCC(Oc1ccc(C2=CCCCCC2)cc1)C(=O)O (stereo not given)
191 to 193 | CC(=O)Nc1ccc(C(=O)O)c(OC(C)=O)c1
268 to 270 | O=C1Cc2cc(C(=O)N3CCN(C(=O)c4ccccc4)CC3)ccc2N1
80 to 81 | CCCCc1ccc(C(=O)NCCCCCCO)cc1
125 to 126 | CCOC(=O)c1cnn(-c2ccc(OCCC(C)C)c(C#N)c2)c1
94 to 96 | CCN1CCc2sc3ncn(CCCl)c(=O)c3c2C1
86 to 98 | CN1Cc2cccnc2C(N2CCN(C(=O)CC3CCN(C(=O)OC(C)(C)C)CC3)CC2)c2ccc(Cl)cc21 (stereo not given)
142 to 144 | CCN(CC)CCOC(=O)C1=C(C)NC(C)=C(c2nnco2)C1c1cccc(Cl)c1Cl (stereo not given)
97 to 100 | COC(=S)C(C)Cc1ccc(OCc2nc3ccc(SC)cc3n2C)cc1 (stereo not given)
155 | C=CCc1c(-c2cc(=O)c3c(O)cc(OCC(=O)OCC)cc3o2)ccc(OC)c1O
58 to 61 | COc1ccc2c(Cc3ccc(OC4CCCCC4N(C)C)cc3)c(-c3ccc(OCCN4CCCC4)cc3)sc2c1 (stereo not given)
213 to 214 | N=C1CC(=O)Oc2cc(OCC(O)COc3ccccc3)ccc21 (stereo not given)
100 to 102 | CCCCSc1ccc(C(=O)O)nc1
207 to 208 | CN1CCN(c2ccc([N+](=O)[O-])cc2)C1=O
261 to 263 | CCCc1nc(C(=O)O)c(C(=O)O)[nH]1
77 to 78.5 | CCc1nc(-c2ccc(OCCCn3ccnc3C)cc2)no1
175 to 177 | CCOC(=O)CNC(=O)c1nc2ccc(NCCCN3CCC(OC(c4ccccc4)c4ccccc4)CC3)nn2n1
153 to 155 | CC(C)c1cccc(C(C)C)c1NC(=O)CC(=O)C(c1ccccc1)c1ccccc1
102 to 104 | CC(=O)OC[C@@H]1CCCN1C(c1ccccc1)(c1ccccc1)c1ccccc1Cl
168 to 170 | CC(C)N1C(=O)c2cnc(-c3ccccc3)nc2N(C(=O)CN2CCN(C)CC2)c2ccccc21
132 to 133 | CC1=C(C(=O)OCCN(Cc2ccccc2)Cc2ccccc2)C(c2ccccc2C(F)(F)F)c2c(ccnc2OC(C)C)N1 (stereo not given)
221 to 222 | CC(C(O)c1ccc2[nH]c(=O)[nH]c2c1)N1CCC(Cc2ccccc2)CC1 (stereo not given)
126 to 128 | O=C(CCCCN1CCCCC1)NNC(=O)N1Cc2ccccc2Oc2ccc(Cl)cc21

melting point [°C] | SMILES
169 to 170 | C=C(CN(C)C)C(O)c1ncc2c(c1O)COC2c1ccc(OC)cc1 (stereo not given)
105 | CCN(CC)CC=CC(=O)Nc1cc2c(Nc3ccc(F)c(Cl)c3)ncnc2cc1OC1CCCC1
149 to 150 | C#CCc1c(C)nc2c(NCc3c(C)cccc3NC(=O)OC)cccn12
35.5 to 36.5 | C#CC(C)(O)CCC=C(C)CCC=C(C)CCC=C(C)CCC=C(C)CCC=C(C)CCC=C(C)CCC=C(C)CCC=C(C)CCC=C(C)CCC=C(C)C (stereo not given)
135 to 137 | Cc1cc(=O)n(C2CCCCC2)c(=O)n1C
135 to 138 | O=C(O)c1nc2ccc(NCCCN3CCC(OC(c4ccccc4)c4ccccc4)CC3)nn2n1
104 to 105 | NC(=O)CN(C(=O)CCCOc1ccc([N+](=O)[O-])c(C=O)c1)C1CCCCC1
81 to 82.5 | CCN(CC)C(=O)c1c(CO)cccc1[Si](C)(C)C
117 to 118 | Cc1cc(NC(=O)N(C)c2ccccc2)cc(C)c1S(=O)(=O)C[N+](=O)[O-]
65 to 66 | Ic1cccc(OCCCCCCOc2c(I)cc(I)cc2I)c1
110 to 112 | Cc1c(CC(=O)OCCO[N+](=O)[O-])cc(-c2ccc(S(C)(=O)=O)cc2)n1-c1ccc(F)cc1
61 to 64 | CCOC(=O)/C=C/c1ccc(OCCOC)cc1Oc1ccc([N+](=O)[O-])cc1
210 to 211 | Cc1c(NC(=O)c2cc3c(s2)CCCC3)cccc1-c1cc(N)c(=O)n(C)c1
113 to 114 | C=CCNC(=NCCSCc1[nH]cnc1C)NC#N
104 | CNC(=O)c1cc(-c2ccc(OC)cc2)nn(CC=C(C)C)c1=O
187 to 188 | CC1(C)C(=O)N(c2ccc([N+](=O)[O-])c(C(F)(F)F)c2)C(=O)N1CCCCCCN1C(=O)N(c2ccc([N+](=O)[O-])c(C(F)(F)F)c2)C(=O)C1(C)C
91 | CC1(C)CC(OC(=O)CCCCCCCCC(=O)OC2CC(C)(C)N(CC#N)C(C)(C)C2)CC(C)(C)N1CC#N
94 to 95 | COC(=O)CC(CNC(C)=O)c1cccc2ccc(OC)cc12 (stereo not given)
204 to 206 | COC(=O)CCc1ccc(N2CCN(c3ccc4c(c3)CCC4=O)C2=O)cc1
128 to 129 | Cc1cccc(C2CCN(C(=O)CCC(=O)c3ccc4c(c3)CCN(C(=O)C(F)(F)F)CC4)CC2)c1
229 to 231 | COc1ccc(NC(=O)CN2C(=O)c3ccccc3C2=O)c(OC)c1COc1cccc2ccc(C)nc12
112 to 113 | COc1ccc(-n2nc(OC)cc2-c2ccc(C#N)cc2)cc1
145 to 147 | Cn1nc(Cl)c(C(=O)OC2COC2)c1S(N)(=O)=O
120 to 122 | CC1(C)OC2c3cc(F)ccc3N3CCC2(CC3)O1 (stereo not given)

Second part, the compound before the results:

SMILES | melting point [°C]
Cc1c(Cc2ccc(F)cc2)c(=O)oc2cc(OC(=O)N(C)c3ccccc3)ccc12 | 185 to 186
C#CC[C@H](c1nc2cc(Cl)ccc2c(=O)n1Nc1ccccc1)N(CCCN)C(=O)c1cc(F)cc(F)c1F | 168 to 170
Nc1ccc(-c2ccc(C(=O)NC3CN4CCC3CC4)o2)cc1 (stereo not given) | 103 to 113
COC(=O)c1cc(I)cn1C | 64 to 65
CCOc1cc(-c2cc(C(F)(F)F)nc(-c3ccnc(-c4ccc(S(N)(=O)=O)s4)c3)n2)ccc1C(F)(F)F | 238
COC(=O)c1ccc(-c2nc(-c3ccc(C(F)(F)F)cc3)no2)cc1 | 177 to 178
O=C(O)CCC(Cl)(Cl)Cl | 54.8
CC(C)(C)OC(=O)c1ccc(C(=O)N(Cc2ccccc2)S(=O)(=O)c2ccc(Br)cc2)cc1 | 120 to 122
CS(=O)(=O)c1nnc(S(=O)(=O)Cc2ccc(Cl)cc2)s1 | 159 to 160
COC(=O)c1ccc(C(F)(F)F)cc1Sc1ccccc1 | 55 to 60
COc1ccc(-c2[nH]nc3c2C(=O)c2c(NC(=O)Cc4ccc(Cl)c(Cl)c4)cccc2-3)cc1 | 299
O=CC1c2ccccc2C(C=O)c2c(Cl)cccc21 (stereo not given) | 144 to 146
CC(C)(C)c1ccc(Sc2cccc(C=C3SC(=S)NC3=O)c2)cc1 | 188 to 190
CS(=O)c1ccc(-n2cnc3ccc(-c4nnc(N)o4)cc32)cc1 (stereo not given) | 290 to 291
Oc1cc(I)c(I)cc1O | 116
O=[N+]([O-])c1ccc2oc(Cc3ccccc3)cc2c1 | 100
Cc1nc2cnc3ccc(Cl)cc3c2n1-c1ccccc1Cl | 178
NS(=O)(=O)c1ccc(NC(=O)Nc2ccc3c(c2)Cc2ccccc2-3)cc1 | 280 to 285
CN(C)c1ccc(C(=O)C(C)(C)N(C)C)cc1 | 89 to 91
COc1ccc(C(Cl)=NO)cc1 | 87.5 to 89.5
O=c1cncc2ccccc2n1 | 213
CNc1cc(NS(=O)(=O)c2ccc(F)cc2)nc(NC)n1 | 261 to 263
CC(C)(C)NC(=O)c1nn(-c2cc(F)cc(F)c2)c2c1C1CCC2C1 (stereo not given) | 103 to 107
Cc1cc(NC(=O)c2cnccc2C(F)(F)F)on1 | 53 to 55
CCC(C)(C)Nc1c(-c2ccc(OC)cc2)c(=O)c1=O | 133 to 135
CN(C)c1ccc(/C=C/c2ccc(F)c(F)c2)cc1 | 159 to 160

SMILES | melting point [°C]
C=CCc1cc(Cc2cnc(N)nc2N)c2cccnc2c1OCCOC | 196 to 200
OCc1ccc(OCCCCl)cc1 | 65
O=C(OCc1cc(F)nc(F)c1)c1ccccc1 | 83 to 84
O=C1/C(=C/c2ccccc2)N2CCC1CC2 | 130 to 132
COc1cc(CBr)cc2c(Br)ccc(OC(C)C)c12 | 126
OC1CSC(Oc2ccc(-c3cccnc3)cc2F)C(O)C1O (stereo not given) | 207
Clc1ccc(N2CCN(CCc3ccccc3)CC2)nn1 | 140
CC(C)C(NS(=O)(=O)c1ccc(Cl)s1)c1cccn1Cc1ccccc1 (stereo not given) | 102 to 103
CN1CCN(c2ccc3nc(-c4ccc(F)cc4)c(-c4ccncc4)n3n2)CC1 | 250
CCN(CC)c1cc(=O)c2c(o1)c(OC)cc1ccccc12 | 150 to 151
O=C1CSc2ccc(S(=O)(=O)Cc3c(Cl)cccc3Cl)cc2N1 | 244 to 246
CC1(C)C(=O)Nc2cc3[nH]c(-c4cnccn4)nc3cc21 | > 300
Fc1ccc(-c2c[nH]cn2)cc1 | 130 to 132
COc1cccc(-c2nc3nccnc3[nH]2)c1 | 289
CCOC(=O)C(=Cc1cccn2c(Br)cnc12)N=[N+]=[N-] | 90 to 92
Cc1ccc2c(c1)oc1c(C(=O)NC3C4CC5CC(C4)CC3C5)nn(-c3ccc(Cl)cc3Cl)c12 (stereo not given) | 209 to 211
CCc1cc(N(C=O)c2ccccc2)cc(CC)c1N=C=S | 77 to 78
N#Cc1ccc(COc2ccc3ccccc3c2C=O)cc1 | 163 to 164
CN(C)c1ccc2nc(N)c(C#N)c(NCc3ccccc3)c2c1 | 265
C1=CCC2=c3cnc4ccccc4c3=NC2=C1 | 146 to 148
CC(=O)OCc1cccc(-n2cccc2)c1Br | 84 to 86.5
CC1(C)COC(c2ccccc2-c2ccc(-c3ccccc3)cc2)=N1 | 95 to 97
CNS(=O)(=O)c1ccc(-c2cccc3nc(Nc4cc(OC)c(OC)c(OC)c4)oc23)cc1 | 260 to 262
C[C@H](CS(C)(=O)=O)NC(=O)c1c[nH]c2ncc(-c3nn(C)c4cc(Cl)ccc34)nc12 | 287 to 290
O=[N+]([O-])c1cc(Cl)ccc1N1CCc2cc(Cl)ccc21 | 130 to 133
Oc1ccc(N2CCN(c3ccncc3)CC2)cc1 | 288 to 290
